For assay [1], the target named is DNA-PK(h) (Homo sapiens, UniProt P78527). Put plainly: Evaluation of inhibitory activity against DNA-PK (HTRF kinase assay, GST-cMyc-p53 substrate). The class given is biochemical. Particulars: for inhibition at 0.01 µM: compound concentration 0.01 μM, read-out: EXP_VALUE(% Inhibition) DNA-PK(h) 0.01 μM; for inhibition at 0.1 µM: compound concentration 0.1 μM, read-out: EXP_VALUE(% Inhibition) DNA-PK(h) 0.1 μM. Summed up: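 p53 Ser15 phosphorylation by human DNA-PK was measured by time-resolved FRET ratio (665/620 nm ×10000) using Eu-labelled anti-phospho-Ser15 and d2 anti-GST antibodies. Substrate GST-cMyc-p53 at 50 μM; Mg/ATP-initiated, 30 min at room temperature, EDTA stop.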

Assay [2] concerns the target PI3K-δ (PI3K(p1108/p857) (h)) (Homo sapiens, UniProt O00329). Put plainly: Evaluation of inhibitory activity against PI3K-δ (HTRF kinase assay). The class given is biochemical. As to conditions: for inhibition at 0.01 µM: compound concentration 0.01 μM, read-out: EXP_VALUE(% Inhibition) PI3K-δ 0.01 μM; for inhibition at 0.1 µM: compound concentration 0.1 μM, read-out: EXP_VALUE(% Inhibition) PI3K-δ 0.1 μM. Summed up:
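HTRF read-out (665/620 nm ratio ×10000) used Eu-labelled anti-GST, GST-tagged GRP1 PH domain and streptavidin-allophycocyanin after EDTA/PIP3 stop.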

Sequence of PI3K-δ (PI3K(p1108/p857) (h)) (O00329 whole entry, the tested form may be a part): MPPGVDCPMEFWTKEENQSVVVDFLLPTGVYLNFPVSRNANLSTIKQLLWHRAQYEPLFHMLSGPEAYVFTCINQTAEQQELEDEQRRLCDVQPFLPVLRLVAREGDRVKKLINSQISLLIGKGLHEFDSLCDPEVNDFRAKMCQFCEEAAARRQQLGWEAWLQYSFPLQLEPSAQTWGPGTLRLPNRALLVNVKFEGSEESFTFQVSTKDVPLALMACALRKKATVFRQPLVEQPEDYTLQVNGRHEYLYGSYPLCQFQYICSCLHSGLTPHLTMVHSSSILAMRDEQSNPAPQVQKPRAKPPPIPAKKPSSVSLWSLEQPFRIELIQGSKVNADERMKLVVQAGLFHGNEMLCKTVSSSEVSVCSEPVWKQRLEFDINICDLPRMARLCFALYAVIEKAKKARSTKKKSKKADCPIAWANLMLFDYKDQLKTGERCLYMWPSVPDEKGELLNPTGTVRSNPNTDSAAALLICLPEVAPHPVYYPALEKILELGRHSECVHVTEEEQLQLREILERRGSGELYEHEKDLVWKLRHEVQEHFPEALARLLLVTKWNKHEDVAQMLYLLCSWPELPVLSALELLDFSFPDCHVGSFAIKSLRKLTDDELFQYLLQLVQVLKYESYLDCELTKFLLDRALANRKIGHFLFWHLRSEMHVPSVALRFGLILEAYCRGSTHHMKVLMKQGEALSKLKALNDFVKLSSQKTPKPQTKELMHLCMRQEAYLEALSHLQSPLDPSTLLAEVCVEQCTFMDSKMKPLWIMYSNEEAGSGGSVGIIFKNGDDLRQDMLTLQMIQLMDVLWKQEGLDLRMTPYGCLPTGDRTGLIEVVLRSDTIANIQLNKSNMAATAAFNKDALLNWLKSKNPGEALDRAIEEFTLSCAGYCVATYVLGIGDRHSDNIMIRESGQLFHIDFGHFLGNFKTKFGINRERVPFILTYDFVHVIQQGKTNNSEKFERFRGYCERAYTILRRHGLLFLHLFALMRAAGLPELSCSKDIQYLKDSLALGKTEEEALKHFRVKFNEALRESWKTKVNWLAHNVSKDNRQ
Sequence of PI3K-δ (PI3K(p1108/p857) (h)) (P27986 whole entry partner, the tested form may be a part): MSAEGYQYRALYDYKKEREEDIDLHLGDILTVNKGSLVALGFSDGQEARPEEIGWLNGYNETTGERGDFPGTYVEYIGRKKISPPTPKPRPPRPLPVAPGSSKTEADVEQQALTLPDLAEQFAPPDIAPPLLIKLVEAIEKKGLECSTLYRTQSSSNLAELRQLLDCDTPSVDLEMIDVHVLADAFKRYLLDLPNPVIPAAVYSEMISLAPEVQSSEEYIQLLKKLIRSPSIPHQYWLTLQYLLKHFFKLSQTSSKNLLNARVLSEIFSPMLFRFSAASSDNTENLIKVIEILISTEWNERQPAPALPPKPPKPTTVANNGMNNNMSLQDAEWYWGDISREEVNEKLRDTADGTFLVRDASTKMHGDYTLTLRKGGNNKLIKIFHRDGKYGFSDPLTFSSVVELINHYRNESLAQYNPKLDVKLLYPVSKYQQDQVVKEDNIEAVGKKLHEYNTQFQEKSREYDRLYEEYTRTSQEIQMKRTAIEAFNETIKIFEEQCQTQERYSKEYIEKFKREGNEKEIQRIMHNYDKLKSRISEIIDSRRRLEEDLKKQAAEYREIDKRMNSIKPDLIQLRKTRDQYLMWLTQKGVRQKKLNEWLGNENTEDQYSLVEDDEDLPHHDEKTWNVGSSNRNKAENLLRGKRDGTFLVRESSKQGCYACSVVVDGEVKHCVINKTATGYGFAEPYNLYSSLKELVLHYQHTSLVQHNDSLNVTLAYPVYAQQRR

What is called inhibition is the change of the read-out against control, counted positive when it falls. Turning to `C[C@H](Nc1ncnc2[nH]ccc(=O)c12)c1c(Cl)c2cccc(-c3nnn[nH]3)c2c(=O)n1-c1ccccc1` [Example 352, (S)-4-((1-(4-chloro-1-oxo-2-phenyl-8-(1H-tetrazol-5-yl)-1,2-dihydroisoquinolin-3-yl)ethyl)amino)pyrido[2,3-d]pyrimidin-5(8H)-one], in assay [1], the inhibition at 0.01 µM amounted to 34% and the inhibition at 0.1 µM came out at 76%. In assay [2], the inhibition at 0.01 µM was 27% and the inhibition at 0.1 µM was 75%.

With `C[C@H](Nc1ncnc2[nH]ccc(=O)c12)c1c(Cl)c2cccc(B(O)O)c2c(=O)n1-c1ccccc1` [Example 353, (S)-(4-chloro-1-oxo-3-(1-((5-oxo-5,8-dihydropyrido[2,3-d]pyrimidin-4-yl)amino)ethyl)-2-phenyl-1,2-dihydroisoquinolin-8-yl)boronic acid], the inhibition at 0.01 µM was 19% in assay [1] and 84% in assay [2]. The inhibition at 0.1 µM in assay [1] is 62%; in assay [2] it was 94%.

In the case of `CCc1cccc2c(Cl)c([C@H](C)Nc3ncnc4[nH]ccc(=O)c34)n(-c3ccccc3)c(=O)c12` [Example 354, (S)-4-((1-(4-chloro-8-ethyl-1-oxo-2-phenyl-1,2-dihydroisoquinolin-3-yl)ethyl)amino)pyrido[2,3-d]pyrimidin-5(8H)-one], in assay [1], the inhibition at 0.01 µM came to 63% and the inhibition at 0.1 µM turned out to be 94%. For the same compound, in assay [2], the inhibition at 0.01 µM is 95% and the inhibition at 0.1 µM turned out to be 106%.

Take `C[C@H](Nc1ncnc2[nH]ccc(=O)c12)c1c(Cl)c2cccc(CO)c2c(=O)n1-c1ccccc1` [Example 355, (S)-4-((1-(4-chloro-8-(hydroxymethyl)-1-oxo-2-phenyl-1,2-dihydroisoquinolin-3-yl)ethyl)amino)pyrido[2,3-d]pyrimidin-5(8H)-one]: the inhibition at 0.01 µM in assay [1] came out at 47%; in assay [2], 78%.

Regarding `C[C@H](Nc1ncnc2[nH]ccc(=O)c12)c1c(Cl)c2cccc(C3NCCS3)c2c(=O)n1-c1ccccc1` (stereo partly drawn) [Example 356, 4-(((1S)-1-(4-chloro-1-oxo-2-phenyl-8-(thiazolidin-2-yl)-1,2-dihydroisoquinolin-3-yl)ethyl)amino)pyrido[2,3-d]pyrimidin-5(8H)-one], the figures for the inhibition at 0.01 µM in assay [1] and in assay [2] were 34% and 62%, respectively.

On to `C[C@H](Nc1ncnc2[nH]ccc(=O)c12)c1c(Cl)c2cccc(C(O)C(C)(C)C)c2c(=O)n1-c1ccccc1` (stereo partly drawn) [Example 357, 4-(((1S)-1-(4-chloro-8-(1-hydroxy-2,2-dimethylpropyl)-1-oxo-2-phenyl-1,2-dihydroisoquinolin-3-yl)ethyl)amino)pyrido[2,3-d]pyrimidin-5(8H)-one], for which the inhibition at 0.01 µM in assay [1] was 15%; in assay [2], 11%.

`C[C@H](Nc1ncnc2[nH]ccc(=O)c12)c1c(Cl)c2cccc(C3OCC(C)(C)CO3)c2c(=O)n1-c1ccccc1` [Example 358, (S)-4-((1-(4-chloro-8-(5,5-dimethyl-1,3-dioxan-2-yl)-1-oxo-2-phenyl-1,2-dihydroisoquinolin-3-yl)ethyl)amino)pyrido[2,3-d]pyrimidin-5(8H)-one]: the inhibition at 0.01 µM in assay [1] was -1%; in assay [2], 37%.

As for `C[C@H](Nc1ncnc2[nH]ccc(=O)c12)c1c(Cl)c2cccc(COCC(C)(C)CO)c2c(=O)n1-c1ccccc1` [Example 359, (S)-4-((1-(4-chloro-8-((3-hydroxy-2,2-dimethylpropoxy)methyl)-1-oxo-2-phenyl-1,2-dihydroisoquinolin-3-yl)ethyl)amino)pyrido[2,3-d]pyrimidin-5(8H)-one], the results for the inhibition at 0.01 µM in assay [1] and in assay [2] were 8% and 46%, respectively.

Take `C[C@H](Nc1ncnc2[nH]ccc(=O)c12)c1c(Cl)c2cccc(C(C)(C)O)c2c(=O)n1-c1ccccc1` [Example 360, (S)-4-((1-(4-chloro-8-(2-hydroxypropan-2-yl)-1-oxo-2-phenyl-1,2-dihydroisoquinolin-3-yl)ethyl)amino)pyrido[2,3-d]pyrimidin-5(8H)-one]: the inhibition at 0.01 µM in assay [1] was -4%; in assay [2], 6%.

In the case of `C[C@H](Nc1ncnc2[nH]ccc(=O)c12)c1c(Cl)c2cccc([C@@H](C)O)c2c(=O)n1-c1ccccc1` [Example 361, 4-(((S)-1-(4-chloro-8-((R)-1-hydroxyethyl)-1-oxo-2-phenyl-1,2-dihydroisoquinolin-3-yl)ethyl)amino)pyrido[2,3-d]pyrimidin-5(8H)-one], the inhibition at 0.01 µM was 48% in assay [1] and 56% in assay [2].

Turning to `C[C@H](Nc1ncnc2[nH]ccc(=O)c12)c1c(Cl)c2cccc(OCc3ccccc3)c2c(=O)n1-c1ccccc1` [Example 362, (S)-4-((1-(8-(benzyloxy)-4-chloro-1-oxo-2-phenyl-1,2-dihydroisoquinolin-3-yl)ethyl)amino)pyrido[2,3-d]pyrimidin-5(8H)-one], in assay [1], the inhibition at 0.01 µM is 29% and the inhibition at 0.1 µM turned out to be 67%. Moreover, in assay [2], the inhibition at 0.01 µM was 21% and the inhibition at 0.1 µM was determined as 64%.

Take `COCCOc1cccc2c(Cl)c([C@H](C)Nc3ncnc4[nH]ccc(=O)c34)n(-c3ccccc3)c(=O)c12` [Example 363, (S)-4-((1-(4-chloro-8-(2-methoxyethoxy)-1-oxo-2-phenyl-1,2-dihydroisoquinolin-3-yl)ethyl)amino)pyrido[2,3-d]pyrimidin-5(8H)-one]: the inhibition at 0.01 µM turned out to be 35% in assay [1] and 26% in assay [2]. In addition, the inhibition at 0.1 µM in assay [1] worked out at 80%; in assay [2] it was 76%.

With `C[C@H](Nc1ncnc2[nH]ccc(=O)c12)c1c(Cl)c2cccc(OCC(F)(F)F)c2c(=O)n1-c1ccccc1` [Example 364, (S)-4-((1-(4-chloro-1-oxo-2-phenyl-8-(2,2,2-trifluoroethoxy)-1,2-dihydroisoquinolin-3-yl)ethyl)amino)pyrido[2,3-d]pyrimidin-5(8H)-one], in assay [1], the inhibition at 0.01 µM was 21% and the inhibition at 0.1 µM turned out to be 82%. In assay [2], the inhibition at 0.01 µM stood at 29% and the inhibition at 0.1 µM is 76%.

Turning to `COc1cccc2c(Cl)c([C@H](C)Nc3ncnc4[nH]ccc(=O)c34)n(-c3ccccc3)c(=O)c12` [Example 365, (S)-4-((1-(4-chloro-8-methoxy-1-oxo-2-phenyl-1,2-dihydroisoquinolin-3-yl)ethyl)amino)pyrido[2,3-d]pyrimidin-5(8H)-one], in assay [1], the inhibition at 0.01 µM is 28% and the inhibition at 0.1 µM was 65%. Besides, in assay [2], the inhibition at 0.01 µM worked out at 31% and the inhibition at 0.1 µM worked out at 84%.

For the compound `COc1ccccc1Oc1cccc2c(Cl)c([C@H](C)Nc3ncnc4[nH]ccc(=O)c34)n(-c3ccccc3)c(=O)c12` [Example 366, (S)-4-((1-(4-chloro-8-(2-methoxyphenoxy)-1-oxo-2-phenyl-1,2-dihydroisoquinolin-3-yl)ethyl)amino)pyrido[2,3-d]pyrimidin-5(8H)-one], in assay [1], the inhibition at 0.01 µM was determined as 23% and the inhibition at 0.1 µM was determined as 69%. In addition, in assay [2], the inhibition at 0.01 µM worked out at 41% and the inhibition at 0.1 µM worked out at 85%.

The values are drawn from US20230072683A1, “PYRIDO-PYRIMIDIN DERIVATIVES AND PHARMACEUTICAL COMPOSITION, FOR USE IN PREVENTING OR TREATING PI3 KINASE RELATED DISEASES, COMPRISING SAME AS ACTIVE INGREDIENT” (BORYUNG PHARMACEUTICAL CO., LTD, priority 2019, published 2023).
